Among the data in patent EP0469547B1, “4-Amino-delta4,6-steroids and their use as 5alpha-reductase inhibitors” (MERRELL PHARMACEUTICALS INC., priority 1990, dated 1992) are IC50 values, retold here.

In the assay the target is T1, steroid 5α-reductase (Homo sapiens, UniProt P31213).
T1 construct: Microsomal preparations of the steroid 5α-reductase enzyme (protein) were obtained from human prostate tissue; from tissue; host or cells: human prostate tissue (microsomal preparation)
T1 sequence (P31213 1-254): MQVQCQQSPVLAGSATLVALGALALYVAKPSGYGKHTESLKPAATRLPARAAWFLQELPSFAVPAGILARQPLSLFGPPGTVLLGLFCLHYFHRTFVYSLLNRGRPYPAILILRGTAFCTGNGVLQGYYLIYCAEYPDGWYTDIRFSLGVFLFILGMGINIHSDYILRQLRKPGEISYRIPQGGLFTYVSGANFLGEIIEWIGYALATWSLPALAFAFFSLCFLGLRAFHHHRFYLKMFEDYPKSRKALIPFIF
The experiment in a line: 5α-reductase inhibition test with human prostate microsomal preparations (conversion of 1,2-³H-testosterone to dihydrotestosterone, HPLC). Format: biochemical. As for the experimental part:
Microsomal preparations of the steroid 5α-reductase enzyme (protein) were obtained from human prostate tissue and stored in aliquots. Protein concentration was determined prior to use of the samples. In the method itself, individual assays for 5α-reductase activity contained 0.1M phosphate citrate buffer, pH 5.6, 1mM EDTA, 7 to 22 µg of microsomal protein, 1mM NADPH, 5 mM glucose-6-phosphate, 1 IU/ml glucose-6-phosphate dehydrogenase, 1,2-³H-testosterone, and test compound, dissolved in dimethyl sulfoxide and then diluted in phosphate-citrate buffer to yield a final assay concentration of 0.1% (v/v) dimethyl sulfoxide. The same buffer and the same quantity of dimethyl sulfoxide, without any test compound is used for the control assays. The total assay volume was 100 µl and assays were performed in duplicate. The reaction was initiated by the addition of the testosterone, and incubated for 30 minutes at 25°C. The assay is linear with time to 30 minutes.
Depending on the nature of the inhibition, testosterone concentration was typically varied from 0.15 µM (approximately 0.5 Km) to 10 Km with radioactive label constant at 0.15 µCi per assay. The amount of test compound added was varied to provide final concentrations of 1 nM to 100 µM. The reaction was quenched by the addition of 50 volumes of chloroform:methanol (2:1). The steroids were then extracted and separated by high pressure liquid chromatography and the amounts of testosterone and dihydrotestosterone present were determined to determine the percent conversion of testosterone to dihydrotestosterone and to calculate the 5α-reductase activity. The activity of the test compound was then expressed as the IC₅₀, or the concentration of test compound that produced a 50% inhibition of the testosterone conversion. When compounds of the present invention were tested in this way, the following results were observed: […]

The compound `CC(C)N(C(=O)[C@H]1CC[C@H]2[C@@H]3C=CC4=C(N)C(=O)CC[C@]4(C)[C@H]3CC[C@]12C)C(C)C` [4-Amino-N,N-bis(1-methylethyl)-3-oxoandrosta-4,6-diene-17β-carboxamide] registered an IC50 of 0.016 µM. As for `CC(C)(C)NC(=O)[C@H]1CC[C@H]2[C@@H]3C=CC4=C(N)C(=O)CC[C@]4(C)[C@H]3CC[C@]12C` [4-Amino-N-(1,1-dimethylethyl)-3-oxoandrosta-4,6-diene-17β-carboxamide], the figure is 0.008 µM; as for `CC(=O)[C@H]1CC[C@H]2[C@@H]3C=CC4=C(N)C(=O)CC[C@]4(C)[C@H]3CC[C@]12C` [4-Aminopregna-4,6-diene-3,20-dione], 0.025 µM.
